Assay [1] has as its target Sodium channel protein type 9 subunit alpha (Homo sapiens, UniProt Q15858). Nature of the assay: Inhibition of human Nav1.7 expressed in HEK293 cells at holding potential of -125 mV […] by patchxpress-based electrophysiology assay. Format: cell-based.
In assay [2] the target is Sodium channel protein type 4 subunit alpha (Homo sapiens, UniProt P35499). In words: Inhibition of human Nav1.4 expressed in HEK293 cells at holding potential of -125 mV […] by patchxpress-based electrophysiology assay. Format: cell-based.

pIC50: −log10 of the molar value.

Sequence of Sodium channel protein type 9 subunit alpha (Q15858 whole entry): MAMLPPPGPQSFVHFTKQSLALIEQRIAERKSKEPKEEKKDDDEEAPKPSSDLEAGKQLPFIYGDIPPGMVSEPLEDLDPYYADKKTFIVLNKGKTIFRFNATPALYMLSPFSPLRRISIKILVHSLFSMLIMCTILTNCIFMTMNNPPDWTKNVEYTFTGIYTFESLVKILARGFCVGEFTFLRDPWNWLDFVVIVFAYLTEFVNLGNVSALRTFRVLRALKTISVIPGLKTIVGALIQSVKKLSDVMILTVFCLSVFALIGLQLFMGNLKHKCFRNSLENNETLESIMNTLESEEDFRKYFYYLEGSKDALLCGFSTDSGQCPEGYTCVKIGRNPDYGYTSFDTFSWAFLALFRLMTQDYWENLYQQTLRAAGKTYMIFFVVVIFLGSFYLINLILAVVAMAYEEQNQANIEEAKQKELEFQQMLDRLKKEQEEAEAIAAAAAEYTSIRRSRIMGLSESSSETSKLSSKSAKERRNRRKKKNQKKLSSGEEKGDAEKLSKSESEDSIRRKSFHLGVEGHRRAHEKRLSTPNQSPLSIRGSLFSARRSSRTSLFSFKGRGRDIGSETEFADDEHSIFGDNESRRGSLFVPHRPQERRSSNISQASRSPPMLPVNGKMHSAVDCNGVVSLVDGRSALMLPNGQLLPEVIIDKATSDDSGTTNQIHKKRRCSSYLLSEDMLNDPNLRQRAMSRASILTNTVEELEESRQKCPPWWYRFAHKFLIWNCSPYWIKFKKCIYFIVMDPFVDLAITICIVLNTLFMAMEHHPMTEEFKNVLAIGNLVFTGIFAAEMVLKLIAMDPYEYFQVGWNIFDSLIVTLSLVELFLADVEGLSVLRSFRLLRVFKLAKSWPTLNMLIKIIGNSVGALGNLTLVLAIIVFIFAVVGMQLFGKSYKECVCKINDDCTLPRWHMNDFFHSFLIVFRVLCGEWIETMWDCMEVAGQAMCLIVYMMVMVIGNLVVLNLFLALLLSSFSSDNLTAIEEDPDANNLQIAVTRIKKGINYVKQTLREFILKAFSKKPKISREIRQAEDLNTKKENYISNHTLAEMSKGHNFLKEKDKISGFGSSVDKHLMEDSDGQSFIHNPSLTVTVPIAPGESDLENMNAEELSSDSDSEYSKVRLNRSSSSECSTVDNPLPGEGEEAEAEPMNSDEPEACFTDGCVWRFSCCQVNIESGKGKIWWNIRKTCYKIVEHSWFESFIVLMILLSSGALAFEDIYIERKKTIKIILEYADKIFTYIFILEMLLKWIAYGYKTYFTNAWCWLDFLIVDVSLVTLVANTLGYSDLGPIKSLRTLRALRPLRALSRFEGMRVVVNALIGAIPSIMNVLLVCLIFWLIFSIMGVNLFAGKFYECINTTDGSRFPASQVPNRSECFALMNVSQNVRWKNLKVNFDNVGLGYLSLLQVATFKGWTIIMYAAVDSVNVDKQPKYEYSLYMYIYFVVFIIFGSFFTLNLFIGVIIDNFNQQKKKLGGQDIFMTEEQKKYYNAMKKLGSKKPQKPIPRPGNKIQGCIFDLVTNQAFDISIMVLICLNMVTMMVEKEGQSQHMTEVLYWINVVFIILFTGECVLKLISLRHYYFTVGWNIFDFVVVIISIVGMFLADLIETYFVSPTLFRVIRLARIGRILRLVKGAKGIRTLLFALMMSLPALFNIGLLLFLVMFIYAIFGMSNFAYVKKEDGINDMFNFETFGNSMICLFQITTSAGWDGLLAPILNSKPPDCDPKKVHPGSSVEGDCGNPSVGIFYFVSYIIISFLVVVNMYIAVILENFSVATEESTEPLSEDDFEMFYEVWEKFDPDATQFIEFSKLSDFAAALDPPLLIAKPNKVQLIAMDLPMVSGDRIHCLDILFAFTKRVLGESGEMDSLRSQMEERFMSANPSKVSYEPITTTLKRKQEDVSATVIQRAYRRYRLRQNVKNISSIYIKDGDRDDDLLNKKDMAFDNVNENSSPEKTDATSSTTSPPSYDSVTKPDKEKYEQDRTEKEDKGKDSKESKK
Sequence of Sodium channel protein type 4 subunit alpha (P35499 whole entry): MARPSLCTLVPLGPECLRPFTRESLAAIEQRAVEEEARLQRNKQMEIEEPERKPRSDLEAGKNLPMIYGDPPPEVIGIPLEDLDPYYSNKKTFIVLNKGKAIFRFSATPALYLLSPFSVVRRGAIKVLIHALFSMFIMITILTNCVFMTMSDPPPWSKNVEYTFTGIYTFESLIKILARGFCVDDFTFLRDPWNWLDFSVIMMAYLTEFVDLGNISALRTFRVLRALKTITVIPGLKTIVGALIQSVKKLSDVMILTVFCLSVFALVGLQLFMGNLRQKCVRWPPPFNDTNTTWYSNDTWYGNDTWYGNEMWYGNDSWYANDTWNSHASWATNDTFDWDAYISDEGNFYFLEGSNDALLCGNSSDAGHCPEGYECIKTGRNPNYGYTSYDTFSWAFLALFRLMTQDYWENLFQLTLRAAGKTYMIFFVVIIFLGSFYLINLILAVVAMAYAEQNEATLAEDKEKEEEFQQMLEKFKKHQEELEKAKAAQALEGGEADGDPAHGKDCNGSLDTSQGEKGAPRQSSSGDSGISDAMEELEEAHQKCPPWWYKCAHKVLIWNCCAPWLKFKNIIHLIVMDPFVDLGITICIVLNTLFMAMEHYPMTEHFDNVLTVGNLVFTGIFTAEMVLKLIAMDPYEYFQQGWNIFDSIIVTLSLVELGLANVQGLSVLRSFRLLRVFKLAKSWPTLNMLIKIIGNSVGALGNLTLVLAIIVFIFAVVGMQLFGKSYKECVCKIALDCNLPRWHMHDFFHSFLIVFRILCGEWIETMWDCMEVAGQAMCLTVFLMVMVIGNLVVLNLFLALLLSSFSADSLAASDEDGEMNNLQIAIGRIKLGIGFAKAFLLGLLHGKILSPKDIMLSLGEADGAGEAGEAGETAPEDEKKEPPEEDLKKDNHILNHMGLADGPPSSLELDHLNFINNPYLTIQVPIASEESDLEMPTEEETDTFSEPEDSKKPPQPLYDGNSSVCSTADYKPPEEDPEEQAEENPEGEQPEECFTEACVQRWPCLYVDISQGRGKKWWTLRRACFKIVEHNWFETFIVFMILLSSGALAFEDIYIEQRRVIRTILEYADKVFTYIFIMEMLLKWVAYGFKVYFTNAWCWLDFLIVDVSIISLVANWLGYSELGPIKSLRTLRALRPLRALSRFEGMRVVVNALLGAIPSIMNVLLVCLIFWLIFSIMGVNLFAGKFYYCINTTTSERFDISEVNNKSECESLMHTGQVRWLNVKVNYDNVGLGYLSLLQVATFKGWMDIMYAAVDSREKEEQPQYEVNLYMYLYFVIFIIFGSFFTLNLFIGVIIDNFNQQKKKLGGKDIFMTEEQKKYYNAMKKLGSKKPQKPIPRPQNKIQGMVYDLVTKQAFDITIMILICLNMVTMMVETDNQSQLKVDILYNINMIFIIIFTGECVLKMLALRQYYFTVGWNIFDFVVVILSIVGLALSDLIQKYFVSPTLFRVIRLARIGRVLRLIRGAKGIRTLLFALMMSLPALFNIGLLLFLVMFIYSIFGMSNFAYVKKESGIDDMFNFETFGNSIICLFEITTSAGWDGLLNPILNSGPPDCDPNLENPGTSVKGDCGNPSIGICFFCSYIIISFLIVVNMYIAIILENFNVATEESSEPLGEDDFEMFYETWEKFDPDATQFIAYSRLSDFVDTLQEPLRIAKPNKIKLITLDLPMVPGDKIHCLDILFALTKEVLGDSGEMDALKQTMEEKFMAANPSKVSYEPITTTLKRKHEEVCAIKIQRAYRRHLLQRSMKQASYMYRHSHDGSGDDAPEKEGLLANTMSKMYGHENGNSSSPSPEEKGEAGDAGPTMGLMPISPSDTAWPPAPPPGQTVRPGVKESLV

By pIC50 is commonly meant the IC50 on a negative log10 scale, so that one unit is a factor of ten. Low values mean a large IC50, high ones a small IC50. For `C#CC[C@H](NC(=O)[C@@H](N)CCC(=O)O)C(=O)N[C@H]1CSSC[C@@H]2NC(=O)[C@@H]3CSSC[C@@H](C(=O)N[C@@H](CCCNC(=N)N)C(=O)N[C@@H](CCCCN)C(=O)N[C@@H](CCC(=O)O)C(=O)N[C@H](C(N)=O)[C@@H](C)CC)NC(=O)[C@H](Cc4c[nH]c5ccc(Br)cc45)NC(=O)[C@H](CC(C)C)NC(=O)[C@H](CCCCN)NC(=O)[C@H](CSSC[C@H](NC(=O)[C@H]([C@@H](C)O)NC(=O)[C@H](Cc4c[nH]c5ccccc45)NC(=O)[C@H](CCCC)NC(=O)[C@H](Cc4c[nH]c5ccccc45)NC(=O)[C@H](CCCCN)NC(=O)[C@H](CCC(N)=O)NC1=O)C(=O)N[C@@H](CC(=O)O)C(=O)N[C@@H](CO)C(=O)N[C@@H](CCC(=O)O)C(=O)N[C@@H](CCCNC(=N)N)C(=O)N[C@@H](C)C(=O)N3)NC(=O)[C@H](CCCNC(=N)N)NC(=O)[C@H](CC(C)C)NC(=O)CNC(=O)[C@H](CCC(=O)O)NC2=O`, the values for the pIC50 in assay [1] and in assay [2] were 9.30 and 7.14, respectively.
In the same order, the values of `C#CC[C@H](N)C(=O)N[C@@H](Cc1ccc(O)cc1)C(=O)N[C@H]1CSSC[C@@H]2NC(=O)[C@@H]3CSSC[C@@H](C(=O)N[C@@H](CCCNC(=N)N)C(=O)N[C@@H](CCCCN)C(=O)N[C@@H](CCC(=O)O)C(=O)N[C@H](C(N)=O)[C@@H](C)CC)NC(=O)[C@H](Cc4c[nH]c5ccccc45)NC(=O)[C@H](CC(C)C)NC(=O)[C@H](CCCCN)NC(=O)[C@H](CSSC[C@H](NC(=O)[C@H]([C@@H](C)O)NC(=O)[C@H](Cc4c[nH]c5ccccc45)NC(=O)[C@H](CCCC)NC(=O)[C@H](Cc4ccccc4)NC(=O)[C@H](CCCCN)NC(=O)[C@H](CCC(N)=O)NC1=O)C(=O)N[C@@H](CC(=O)O)C(=O)N[C@@H](CO)C(=O)N[C@@H](CCCCN)C(=O)N[C@@H](CCCNC(=N)N)C(=O)N[C@@H](C)C(=O)N3)NC(=O)[C@H](CCCNC(=N)N)NC(=O)[C@H](CC(C)C)NC(=O)CNC(=O)[C@H](CCC(=O)O)NC2=O` are 8.89 and 7.28.
Turning to `C#CC[C@H](NC(=O)[C@@H](N)CCC(=O)O)C(=O)N[C@H]1CSSC[C@@H]2NC(=O)[C@@H]3CSSC[C@@H](C(=O)N[C@@H](CCCNC(=N)N)C(=O)N[C@@H](CCCCN)C(=O)N[C@@H](CCC(=O)O)C(=O)N[C@H](C(N)=O)[C@@H](C)CC)NC(=O)[C@H](Cc4c[nH]c5ccc(Br)cc45)NC(=O)[C@H](CC(C)C)NC(=O)[C@H](CCCCN)NC(=O)[C@H](CSSC[C@H](NC(=O)[C@H]([C@@H](C)O)NC(=O)[C@H](Cc4c[nH]c5ccccc45)NC(=O)[C@H](CCCC)NC(=O)[C@H](Cc4c[nH]c5ccccc45)NC(=O)[C@H](CCCCN)NC(=O)[C@H](CCC(N)=O)NC1=O)C(=O)N[C@@H](CC(=O)O)C(=O)N[C@@H](CCC(=O)O)C(=O)N[C@@H](CCCCN)C(=O)N[C@@H](CCCNC(=N)N)C(=O)N[C@@H](C)C(=O)N3)NC(=O)[C@H](CCCNC(=N)N)NC(=O)[C@H](CC(C)C)NC(=O)CNC(=O)[C@H](CCC(=O)O)NC2=O`, the pIC50 in assay [1] was 8.60; in assay [2], 7.05.
The corresponding values for `C#CC[C@H](N)C(=O)N[C@@H](Cc1ccc(O)cc1)C(=O)N[C@H]1CSSC[C@@H]2NC(=O)[C@@H]3CSSC[C@@H](C(=O)N[C@@H](CCCNC(=N)N)C(=O)N[C@@H](CCCCN)C(=O)N[C@@H](CCC(=O)O)C(=O)N[C@H](C(N)=O)[C@@H](C)CC)NC(=O)[C@H](Cc4c[nH]c5cc(Br)ccc45)NC(=O)[C@H](CC(C)C)NC(=O)[C@H](CCCCN)NC(=O)[C@H](CSSC[C@H](NC(=O)[C@H]([C@@H](C)O)NC(=O)[C@H](Cc4c[nH]c5ccccc45)NC(=O)[C@H](CCCC)NC(=O)[C@H](Cc4c[nH]c5ccccc45)NC(=O)[C@H](CCCCN)NC(=O)[C@H](CCC(N)=O)NC1=O)C(=O)N[C@@H](CC(=O)O)C(=O)N[C@@H](CO)C(=O)N[C@@H](CCCCN)C(=O)N[C@@H](CCCNC(=N)N)C(=O)N[C@@H](C)C(=O)N3)NC(=O)[C@H](CCCNC(=N)N)NC(=O)[C@H](CC(C)C)NC(=O)CNC(=O)[C@H](CCC(=O)O)NC2=O` are 8.05 and 7.41.
`C#CC[C@H](N)C(=O)N[C@@H](Cc1ccc(O)cc1)C(=O)N[C@H]1CSSC[C@@H]2NC(=O)[C@@H]3CSSC[C@@H](C(=O)N[C@@H](CCCNC(=N)N)C(=O)N[C@@H](CCCCN)C(=O)N[C@@H](CCC(=O)O)C(=O)N[C@H](C(N)=O)[C@@H](C)CC)NC(=O)[C@H](Cc4c[nH]c5ccc(Cl)cc45)NC(=O)[C@H](CC(C)C)NC(=O)[C@H](CCCCN)NC(=O)[C@H](CSSC[C@H](NC(=O)[C@H]([C@@H](C)O)NC(=O)[C@H](Cc4c[nH]c5ccccc45)NC(=O)[C@H](CCCC)NC(=O)[C@H](Cc4c[nH]c5ccccc45)NC(=O)[C@H](CCCCN)NC(=O)[C@H](CCC(N)=O)NC1=O)C(=O)N[C@@H](CC(=O)O)C(=O)N[C@@H](CO)C(=O)N[C@@H](CCCCN)C(=O)N[C@@H](CCCNC(=N)N)C(=O)N[C@@H](C)C(=O)N3)NC(=O)[C@H](CCCNC(=N)N)NC(=O)[C@H](CC(C)C)NC(=O)CNC(=O)[C@H](CCC(=O)O)NC2=O`: the pIC50 in assay [1] is 8.51; in assay [2] it was 7.64.
For `C#CC[C@H](NC(=O)[C@@H](N)CCC(=O)O)C(=O)N[C@H]1CSSC[C@@H]2NC(=O)[C@@H]3CSSC[C@@H](C(=O)N[C@@H](CCCNC(=N)N)C(=O)N[C@@H](CCCCN)C(=O)N[C@@H](CCC(=O)O)C(=O)N[C@H](C(N)=O)[C@@H](C)CC)NC(=O)[C@H](Cc4c[nH]c5ccc(Br)cc45)NC(=O)[C@H](CC(C)C)NC(=O)[C@H](CCCCN)NC(=O)[C@H](CSSC[C@H](NC(=O)[C@H]([C@@H](C)O)NC(=O)[C@H](Cc4c[nH]c5ccccc45)NC(=O)[C@H](CCCC)NC(=O)[C@H](Cc4c[nH]c5ccccc45)NC(=O)[C@H](CCCCN)NC(=O)[C@H](CCC(N)=O)NC1=O)C(=O)N[C@@H](CC(=O)O)C(=O)N[C@@H](CO)C(=O)N[C@@H](CCCCN)C(=O)N[C@@H](CCCNC(=N)N)C(=O)N[C@@H](CCC(=O)O)C(=O)N3)NC(=O)[C@H](CCCNC(=N)N)NC(=O)[C@H](CC(C)C)NC(=O)CNC(=O)[C@H](CCC(=O)O)NC2=O`, the pIC50 is 8.89 in assay [1] and 6.74 in assay [2].

(Values after ChEMBL document CHEMBL4152382, “Discovery of Tarantula Venom-Derived NaV1.7-Inhibitory JzTx-V Peptide 5-Br-Trp24 Analogue AM-6120 with Systemic Block of Histamine-Induced Pruritis” (J Med Chem, 2018).)
